# From ChEMBL document CHEMBL1201862, “PubChem BioAssay data set” (2004)
#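 1) Cells in 96-well plates. 2) Compound, 48 h, 5 concentrations. 3) Linear interpolation between surrounding doses. 4) Unreached endpoint = highest concentration. Abbreviation: GI50, concentration required for 50% inhibition of growth.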 Activity calls are given as the source filed them. No stated cut-off is given here; in the data, active = GI50 up to about 1.1 µM and inactive = higher.
# Experiments:
# Assay in all cases: inhibition of tumour cell growth, NCI panel, 48 h
# BT-549 = tested on: BT-549
# DLD-1 = tested on: DLD-1
# DMS-273 = tested on: DMS-273
# HOP-18 = tested on: HOP-18
# KM-20L2 = tested on: KM-20L2
# MDA-N = tested on: MDA-N
# T47D = tested on: T47D
# XF498 = tested on: XF498
# RXF 631 = tested on: RXF 631
Structure (SMILES),GI50 (BT-549),GI50 (DLD-1),GI50 (DMS-273),GI50 (HOP-18),GI50 (KM-20L2),GI50 (MDA-N),GI50 (T47D),GI50 (XF498),GI50 (RXF 631)
O=C1N[C@@H]([C@H]2CC[C@H](Cl)CN2)C(=O)N[C@H]1[C@H]1CC[C@H](Cl)CN1,1.63 µM (inactive),4.92 µM (inactive),0.205 µM (active),5.86 µM (inactive),4.93 µM (inactive),0.555 µM (active),0.297 µM (active),0.184 µM (active),
CC1=C(C(=O)CC(=O)C(=O)Nc2ccccc2C(F)(F)F)Sc2ccccc2N1,,76 µM (inactive),40.2 µM (inactive),,> 100 µM (inactive),,,31.5 µM (inactive),86.5 µM (inactive)
COc1cc([C@@H]2c3cc4c(cc3[C@@H](NCc3ccccc3F)C3COC(=O)[C@@H]32)OCO4)cc(OC)c1O (some centres not stated),,11.9 µM (inactive),1.21 µM (inactive),> 100 µM (inactive),2.71 µM (inactive),,,,2.18 µM (inactive)
Nc1ccccc1C(=O)/C=C/c1ccccc1O,,47.2 µM (inactive),,8.34 µM (inactive),> 100 µM (inactive),,,> 100 µM (inactive),55.8 µM (inactive)
CS(=O)(=O)c1nc(N)nc2nc[nH]c12,,> 100 µM (inactive),> 100 µM (inactive),> 100 µM (inactive),> 100 µM (inactive),,,> 100 µM (inactive),
CC12C/C(=C\c3ccccc3)C(=O)C3C1CCCC32,,79.3 µM (inactive),42.6 µM (inactive),> 100 µM (inactive),63.1 µM (inactive),,,> 100 µM (inactive),> 100 µM (inactive)
C/C(=N\NC(=S)N1CCN(c2ccccn2)CC1)c1ncccn1,4.67 µM (inactive),0.00272 µM (active),0.0114 µM (active),1.64 µM (inactive),0.00984 µM (active),6.93 µM (inactive),0.0953 µM (active),0.0247 µM (active),
Cc1cc(NS(=O)(=O)c2ccc(Nc3c4ccccc4nc4c(C(=O)N5CCN(CCO)CC5)cccc34)cc2)no1,,> 100 µM (inactive),> 100 µM (inactive),> 100 µM (inactive),> 100 µM (inactive),,,> 100 µM (inactive),
c1cc2nnsc2s1,,60.4 µM (inactive),70.6 µM (inactive),> 100 µM (inactive),> 100 µM (inactive),,,> 100 µM (inactive),
CC1(C)C2C/C(=C\c3ccccc3)C(=O)C1C2 (configuration not stated),,83.4 µM (inactive),> 100 µM (inactive),,,,,,> 100 µM (inactive)
Cn1c(=O)c2ccc(-c3ccc(Br)cc3)nc2n(C)c1=O,,> 100 µM (inactive),> 100 µM (inactive),> 100 µM (inactive),,,,> 100 µM (inactive),> 100 µM (inactive)
O=C(CC1(O)C(=O)Nc2c(Cl)cc(Cl)cc21)c1cccc2ccccc12 (configuration not stated),,15.8 µM (inactive),13.7 µM (inactive),17.9 µM (inactive),18.9 µM (inactive),,,20.4 µM (inactive),18.1 µM (inactive)
N#Cc1cc([N+](=O)[O-])ccc1NC(=O)C(=O)Nc1n[nH]c(N)n1,,> 100 µM (inactive),> 100 µM (inactive),,> 100 µM (inactive),,,> 100 µM (inactive),> 100 µM (inactive)
O=C(C=C1SCCS1)/C=C\c1ccc(Cl)cc1,,> 100 µM (inactive),99.3 µM (inactive),,,,,73.8 µM (inactive),> 100 µM (inactive)
CC(=O)O[C@H]1CCC2[C@@H]3CC[C@]4(C)CC(=O)C=C[C@]4(C)C3CC[C@@]21C (some centres not stated),16.4 µM (inactive),22.6 µM (inactive),17.7 µM (inactive),> 38.8 µM (inactive),19.4 µM (inactive),26.4 µM (inactive),,,> 50.9 µM (inactive)
CC(=O)OCCOCNC(=S)N/N=C/c1ccc(Br)s1,,> 81.8 µM (inactive),> 87.7 µM (inactive),> 100 µM (inactive),> 100 µM (inactive),,,> 100 µM (inactive),
CCCCCCCCCCCCCCCCOP(=O)(O)Oc1ccc(/C=C\c2ccc(OP(=O)(O)OCCCCCCCCCCCCCCCC)cc2)cc1,,> 100 µM (inactive),25.1 µM (inactive),70.3 µM (inactive),67.3 µM (inactive),,,,48.5 µM (inactive)
CCN(CC)CCOc1ccc(/C=C(\C#N)c2ccc(OCCN(CC)CC)cc2)cc1,,19.5 µM (inactive),13.6 µM (inactive),25.6 µM (inactive),1.56 µM (inactive),,,13.4 µM (inactive),
CC(=O)NC(CCCNCc1ccccc1)C(=O)NCc1ccccc1 (configuration not stated),,> 100 µM (inactive),> 100 µM (inactive),,> 100 µM (inactive),,,> 100 µM (inactive),> 100 µM (inactive)
